From the supplement of paper PMC11061612 come the findings set out here.

Holding throughout (assay): combination Emax (second highest fraction inhibited in the dose matrix, 72 h); higher = more inhibition; extreme values may be limits of the assay
One test deals with BT-20 (Breast Carcinoma). The method in brief:
(§1)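 Cell lines in DMEM/F12 or RPMI with 10% FBS were plated in 1536-well plates, held 24 hours at 37°C, 5% CO2, then given two-drug dose matrices for 72 hours (DMSO typically 0.2%). Viability was read by CellTiter-Glo 2.0 luminescence and scaled as inhibition from 0 (vehicle wells) to 1 (blank wells). Combination Emax is the second-highest inhibition in the matrix; Bliss excess is observed combination effect minus expected EA + EB − EA·EB, EA and EB being single-agent effects.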

The test system of test [1] is DG-75 (Burkitt's Lymphoma). Put shortly: as §1
Test [2] relates to EMC-BAC-2 (Non-Small Cell Lung Carcinoma). The method in brief:
as §1

The test system of test [3] is H-EMC-SS (Chondrosarcoma). The method in brief:
as §1

For test [4], the system named is HSC-2 (Oral Cavity Carcinoma). The method in brief: as §1
The test system of a further test is IMR-5 (Neuroblastoma). Put shortly: as §1
The test system of test [5] is KLE (Endometrial Carcinoma). The method in brief:
as §1

The subject of test [6] is KP-2 (Pancreatic Carcinoma). The method in brief: as §1
Test [7] deals with KU-19-19 (Bladder Carcinoma). The method in brief:
as §1

For test [8], the system named is KYSE-50 (Esophageal Squamous Cell Carcinoma). Put shortly:
as §1

The subject of the next test is NB7 (Neuroblastoma). Put shortly:
as §1

The test system of test [9] is NCI-H1573 (Lung Adenocarcinoma). The method in brief: as §1
The subject of test [10] is NCI-H2347 (Lung Adenocarcinoma). The method in brief: as §1
For test [11], the system named is NCI-H2405 (Lung Adenocarcinoma). Put shortly: as §1
The test system of test [12] is NCI-H513 (Other Solid Carcinomas). The method in brief: as §1
For test [13], the system named is OCUB-M (Breast Carcinoma). The method in brief:
as §1

For test [14], the system named is PFSK-1 (Other Solid Carcinomas). The method in brief: as §1
Test [15] relates to SCC-3 (B-Cell Non-Hodgkin's Lymphoma). Put shortly: as §1
A further test has as its system U-87-MG (Glioblastoma). The method in brief: as §1
Test [16] concerns HuP-T3 (Pancreatic Carcinoma). The method in brief: as §1

For `CN(CCO)CC[C@H](CSc1ccccc1)Nc1ccc(S(=O)(=O)NC(=O)c2ccc(N3CCC([C@@H](O)c4ccccc4-c4ccc(Cl)cc4)CC3)cc2)cc1S(=O)(=O)C(F)(F)F` [AZD4320] + CN(C)CCCOc1ccc(-c2ccc3ncc4c(c3c2)n(C2CCOCC2)c(=O)n4C)cn1 [AZD0156] (first compound max 1 µM, 7x7, partner max 1 µM), the “combination Emax” value worked out at 0.411 in the test on BT-20 (Breast Carcinoma); 0.336 in test [1]; 0.185 in [2]; 0.46 in test [3]; 0.269 in [4]; 0.608 with IMR-5 (Neuroblastoma). Also, the “combination Emax” value in test [5] amounted to 0.266; in test [6] it was 0.897; in [7] it was 0.098; in test [8], 0.0706; in the test on NB7 (Neuroblastoma), 0.108; in [9] it was 0.2. Besides, the “combination Emax” value amounted to 0.45 in test [10]; 0.224 in test [11]; 0.143 in test [12]; 0.516 in [13]; 0.375 in test [14]; 0.361 in [15]. In addition, the “combination Emax” value in the test on U-87-MG (Glioblastoma) turned out to be 0.165.

For the molecule `CN(C)CCCOc1ccc(-c2ccc3ncc4c(c3c2)n(C2CCOCC2)c(=O)n4C)cn1` [AZD0156] + C[C@@H]1COCCN1C2=NC(=NC(=C2)C3(CC3)[S@](=N)(=O)C)C4=C5C=CNC5=NC=C4 [AZD6738] (first compound max 1 µM, 7x7, partner max 10 µM), the “combination Emax” value in the test on BT-20 (Breast Carcinoma) was found to be 0.449; in test [1] it was 0.939; in test [2], 0.676; in test [3], 0.402; in test [4], 0.696; in test [16] it was 0.658. The “combination Emax” value amounted to 0.926 in the test on IMR-5 (Neuroblastoma); 0.469 in test [5]; 0.158 in test [6]; 0.869 in test [7]; 0.674 in [8]; 0.804 with NB7 (Neuroblastoma). Besides, the “combination Emax” value in test [9] came to 0.58; in [10] it was 0.346; in test [11] it was 0.229; in test [12], 0.315; in [13], 0.494; in [15], 0.998.

As for `C=CCn1c(=O)c2cnc(Nc3ccc(N4CCN(C)CC4)cc3)nc2n1-c1cccc(C(C)(C)O)n1` [AZD1775] + C[C@@H]1COCCN1C2=NC(=NC(=C2)C3(CC3)[S@](=N)(=O)C)C4=C5C=CNC5=NC=C4 [AZD6738] (first compound max 1 µM, partner max 10 µM), the “combination Emax” value with BT-20 (Breast Carcinoma) was 0.718; in test [1], 0.978; in test [2], 0.571; in test [3], 0.606; in test [4], 0.832; in [16], 0.705. The “combination Emax” value in the test on IMR-5 (Neuroblastoma) is 0.986; in test [5], 0.59; in test [6], 0.297; in test [7] it was 0.811; in test [8] it was 0.694; in the test on NB7 (Neuroblastoma), 0.934. Moreover, the “combination Emax” value in [9] was determined as 0.694; in test [10] it was 0.449; in test [11], 0.355; in test [12], 0.439; in test [13] it was 0.799; in test [15] it was 1.

With `Cc1c2c(nn1C)CSCc1cc(n(C)n1)CSc1cc(c3ccccc3c1)OCCCc1c(C(=O)O)n(C)c3c-2c(Cl)ccc13` [AZD5991] + C[C@@H]1COCCN1C2=NC(=NC(=C2)C3(CC3)[S@](=N)(=O)C)C4=C5C=CNC5=NC=C4 [AZD6738] (first compound max 1 µM, 7x7, partner max 10 µM), the “combination Emax” value in [1] is 0.817; in test [2] it was 0.862; in test [3], 0.511; in test [4], 0.765; in test [16], 0.666; with IMR-5 (Neuroblastoma) it was 1. For the same molecule, the “combination Emax” value in test [5] is 0.483; in test [6] it was 0.259; in test [7], 0.767; in test [8], 0.643; in the test on NB7 (Neuroblastoma) it was 0.918; in [9], 0.516. Also, the “combination Emax” value in test [10] is 0.322; in [11] it was 0.353; in test [12], 0.344; in test [13], 1; in [14] it was 1; in test [15], 0.957. In the test with U-87-MG (Glioblastoma), the “combination Emax” value came out at 0.494.

Regarding `COc1cccc(OCCCN)c1-c1cc(Nc2cnc(C#N)cn2)n[nH]1` [Prexasertib] + O=C(c1cc(Cc2n[nH]c(=O)c3ccccc23)ccc1F)N1CCN(C(=O)C2CC2)CC1 [Olaparib] (first compound max 1 µM, 7x7, partner max 10 µM), the “combination Emax” value with BT-20 (Breast Carcinoma) came to 0.799; in test [1] it was 0.827; in test [2], 0.44; in test [3], 0.31; in [4], 0.782; in test [16], 0.695. The “combination Emax” value with IMR-5 (Neuroblastoma) was 0.976; in test [5], 0.431; in test [6] it was 0.289; in [7], 0.886; in test [8], 0.75; in the test with NB7 (Neuroblastoma) it was 0.749. The “combination Emax” value amounted to 0.608 in [9]; 0.378 in test [10]; 0.368 in test [11]; 0.295 in test [12]; 0.701 in [13]; 1 in test [15].

With `COc1cccc(OCCCN)c1-c1cc(Nc2cnc(C#N)cn2)n[nH]1` [Prexasertib] + Cc1cc2ncnn2cc1Nc1ncc2c(n1)n(C1CCOCC1)c(=O)n2C [AZD7648] (first compound max 1 µM, 7x7, partner max 10 µM), the “combination Emax” value in the test on BT-20 (Breast Carcinoma) was determined as 0.646; in [1], 0.923; in [2], 0.538; in [3] it was 0.458; in test [4], 0.778; in [16] it was 0.716. Also, the “combination Emax” value in the test on IMR-5 (Neuroblastoma) was 0.98; in test [5] it was 0.471; in [6] it was 0.57; in test [7], 0.836; in test [8], 0.818; in the test with NB7 (Neuroblastoma) it was 0.842. Moreover, the “combination Emax” value in test [9] was 0.668; in test [10], 0.39; in test [11] it was 0.412; in test [12], 0.36; in test [13] it was 0.595; in test [15], 1.
